Measured values reported in patent publication US9056152B2, “Medical device with crystalline drug coating” (Boston Scientific Scimed, Inc., priority 2011, dated 2015).

What was measured:
[1] = Porcine animal study of everolimus coated stents: drug in artery tissue (LC/MS) and drug remaining on stent (HPLC); format: in vivo, common swine; conditions: explanted at 28 days; for Tissue content at 28 days: 130 μg on 12 mm stents implanted in coronary and internal thoracic arteries of swine, drug in arteries by LC/MS; for % drug left on stent at 28 days: 130 μg on 12 mm stents implanted in swine arteries, drug remaining on stent by HPLC
Protocol: Stents coated with either crystalline or amorphous everolimus (130 μg on 12 mm stents) were implanted in the coronary arteries and internal thoracic arteries of common swine. The stented vessels were explanted after 3 hrs, 24 hrs, 7, 14 and 28 days. N=3 stents per timepoint were used. After sacrifice the stents were removed from the arteries and the amount of drug in the arteries was determined by LC/MS. The amount of drug remaining on the stent was determined by HPLC.

[2] = Everolimus solubility in water @ 37° C., amorphous vs crystalline form; format: physicochemical; conditions: data shown in FIG. 1
Protocol: FIG. 1 is a graph comparing everolimus solubility data in water @ 37° C. for amorphous and crystalline forms.

[3] = listed as crystalline everolimus

| Structure (SMILES) | Tissue content at 28 days [1] | Tissue content at 28 days ([1]; listed as amorphous everolimus) | % drug left on stent at 28 days [1] | % drug left on stent at 28 days ([1]; listed as amorphous drug) | Tissue content at 28 days [1, 3] | % drug left on stent at 28 days [1, 3] | solubility in water [2] |
| --- | --- | --- | --- | --- | --- | --- | --- |
| CO[C@H]1C[C@@H]2CC[C@@H](C)[C@@](O)(O2)C(=O)C(=O)N2CCCC[C@H]2C(=O)O[C@H]([C@H](C)C[C@@H]2CC[C@@H](OCCO)[C@H](OC)C2)CC(=O)[C@H](C)/C=C(\C)[C@@H](O)[C@@H](OC)C(=O)[C@H](C)C[C@H](C)/C=C/C=C/C=C/1C [Amorphous Everolimus, 40-O-(2-Hydroxyethyl)rapamycin] | 0.04 ng/mg | essentially no drug in the tissue | 0% | no drug remaining on the stents |  |  |  |
| CO[C@H]1C[C@@H]2CC[C@@H](C)[C@@](O)(O2)C(=O)C(=O)N2CCCC[C@H]2C(=O)O[C@H]([C@H](C)C[C@@H]2CC[C@@H](OCCO)[C@H](OC)C2)CC(=O)[C@H](C)/C=C(\C)[C@@H](O)[C@@H](OC)C(=O)[C@H](C)C[C@H](C)/C=C/C=C/C=C/1C [Crystalline Everolimus, 40-O-(2-Hydroxyethyl)rapamycin] | 6.1 ng/mg |  | 25.8% |  | 6 ng/mg | 25% | much lower solubility in water than amorphous everolimus |
